Where two headings read alike, the source gives them in different places.
Biological target: T1, recombinant human NaV1.8 stably transfected HEK cells (Homo sapiens, UniProt Q9Y5Y9)
T1 construct: expressed in transfected cells; host or cells: HEK cells, stably transfected
Assay: Compound profiling on NaV1.8, human NaV1.8 cell line, SyncroPatch384PE automated patch clamp assay (Example 115, third set of compounds, Table 27)
Type: cell-based
Conditions: human NaV1.8 HEK cells, Table 27 (third set of compounds)
Protocol: Compound Profiling on NaV1.8 Human NaV1.8 Cell Line SyncroPatch384PE Assay
Compounds were tested on recombinant human NaV1.8 stably transfected HEK cells using the SyncroPatch384PE system, an automated patch clamp device. Cells were cultured at 37° C./5% CO2 in DMEM medium supplemented with GlutaMAX I, NEAA 1%, FBS 10% and seeded in T175 flasks. Cells were cultured at 30° C. one day prior to recording sodium currents. On the day of the recordings, cells were detached with 0.05% Trypsin-EDTA, resuspended in serum free DMEM medium and placed into the SyncroPatch384PE 6° C. pre-cooled cell hotel and shaken at 200 rpm. Intracellular solution (IC) contained, in mM: 10, CsCl; 110, CsF; 20, EGTA; 10, HEPES. Extracellular solution (EC) contained, in mM: 140, NaCl; 4, KCl; 5, Glucose; 10, HEPES; 2, CaCl2; 1, MgCl2. Washing solution contained, in mM: 40, NMDG; 100, NaCl; 4, KCl; 10, Glucose; 10, HEPES; 5, CaCl2; 1, MgCl2.
Compounds were tested in quadruplicates in 0.1% DMSO and 0.030% Pluronic Acid. Compounds were diluted 1:3.33 in EC solution to create a 10-point concentration response curve, spanning a final concentration range from 10-0.0002 μM in the assay plate. Compounds with low nM potency were retested using a lower concentration range (1-0.00002 μM). Each plate contained tetracaine and another tool compound as positive controls. Up to 7 compounds were tested on one plate. 150 μM tetracaine and 0.1% DMSO were used as high and low controls, respectively.
Whole cell patch clamp recordings were conducted according to Nanion's standard procedure for SyncroPatch384PE®. Cells were held at a holding potential of −120 mV. A depolarization step to 10 mV for 30 ms was applied (P1 measurement), followed by a hyperpolarization step to −100 mV for 100 ms. An inactivation step at −40 mV for 10 sec was applied before stepping to −100 mV for 20 ms, followed by a step to 10 mV for 30 ms (P2 measurement) and then back to −100 mV for 30 ms. Sweep interval was 15 sec with a sampling rate of 10 kHz. Following establishment of the whole-cell configuration in EC, two washing steps with reference buffer were performed to stabilize the baseline. Compounds were then applied by the SynchroPatch into each well and the current was recorded for five minutes in EC, followed by application of tetracaine to achieve full block at the end of the experiment. The potency of the compounds was assessed on two read-outs, resting state block (P1 measurement) or inactivated state block (P2 measurement) to obtain IC50 values. Values were normalized to high (tetracaine) and low (DMSO) controls.

[1] = inactivated state block (P2 measurement), read-out: P2 IC50
[2] = resting state block (P1 measurement), read-out: P1 IC50

T1 sequence (Q9Y5Y9 whole entry): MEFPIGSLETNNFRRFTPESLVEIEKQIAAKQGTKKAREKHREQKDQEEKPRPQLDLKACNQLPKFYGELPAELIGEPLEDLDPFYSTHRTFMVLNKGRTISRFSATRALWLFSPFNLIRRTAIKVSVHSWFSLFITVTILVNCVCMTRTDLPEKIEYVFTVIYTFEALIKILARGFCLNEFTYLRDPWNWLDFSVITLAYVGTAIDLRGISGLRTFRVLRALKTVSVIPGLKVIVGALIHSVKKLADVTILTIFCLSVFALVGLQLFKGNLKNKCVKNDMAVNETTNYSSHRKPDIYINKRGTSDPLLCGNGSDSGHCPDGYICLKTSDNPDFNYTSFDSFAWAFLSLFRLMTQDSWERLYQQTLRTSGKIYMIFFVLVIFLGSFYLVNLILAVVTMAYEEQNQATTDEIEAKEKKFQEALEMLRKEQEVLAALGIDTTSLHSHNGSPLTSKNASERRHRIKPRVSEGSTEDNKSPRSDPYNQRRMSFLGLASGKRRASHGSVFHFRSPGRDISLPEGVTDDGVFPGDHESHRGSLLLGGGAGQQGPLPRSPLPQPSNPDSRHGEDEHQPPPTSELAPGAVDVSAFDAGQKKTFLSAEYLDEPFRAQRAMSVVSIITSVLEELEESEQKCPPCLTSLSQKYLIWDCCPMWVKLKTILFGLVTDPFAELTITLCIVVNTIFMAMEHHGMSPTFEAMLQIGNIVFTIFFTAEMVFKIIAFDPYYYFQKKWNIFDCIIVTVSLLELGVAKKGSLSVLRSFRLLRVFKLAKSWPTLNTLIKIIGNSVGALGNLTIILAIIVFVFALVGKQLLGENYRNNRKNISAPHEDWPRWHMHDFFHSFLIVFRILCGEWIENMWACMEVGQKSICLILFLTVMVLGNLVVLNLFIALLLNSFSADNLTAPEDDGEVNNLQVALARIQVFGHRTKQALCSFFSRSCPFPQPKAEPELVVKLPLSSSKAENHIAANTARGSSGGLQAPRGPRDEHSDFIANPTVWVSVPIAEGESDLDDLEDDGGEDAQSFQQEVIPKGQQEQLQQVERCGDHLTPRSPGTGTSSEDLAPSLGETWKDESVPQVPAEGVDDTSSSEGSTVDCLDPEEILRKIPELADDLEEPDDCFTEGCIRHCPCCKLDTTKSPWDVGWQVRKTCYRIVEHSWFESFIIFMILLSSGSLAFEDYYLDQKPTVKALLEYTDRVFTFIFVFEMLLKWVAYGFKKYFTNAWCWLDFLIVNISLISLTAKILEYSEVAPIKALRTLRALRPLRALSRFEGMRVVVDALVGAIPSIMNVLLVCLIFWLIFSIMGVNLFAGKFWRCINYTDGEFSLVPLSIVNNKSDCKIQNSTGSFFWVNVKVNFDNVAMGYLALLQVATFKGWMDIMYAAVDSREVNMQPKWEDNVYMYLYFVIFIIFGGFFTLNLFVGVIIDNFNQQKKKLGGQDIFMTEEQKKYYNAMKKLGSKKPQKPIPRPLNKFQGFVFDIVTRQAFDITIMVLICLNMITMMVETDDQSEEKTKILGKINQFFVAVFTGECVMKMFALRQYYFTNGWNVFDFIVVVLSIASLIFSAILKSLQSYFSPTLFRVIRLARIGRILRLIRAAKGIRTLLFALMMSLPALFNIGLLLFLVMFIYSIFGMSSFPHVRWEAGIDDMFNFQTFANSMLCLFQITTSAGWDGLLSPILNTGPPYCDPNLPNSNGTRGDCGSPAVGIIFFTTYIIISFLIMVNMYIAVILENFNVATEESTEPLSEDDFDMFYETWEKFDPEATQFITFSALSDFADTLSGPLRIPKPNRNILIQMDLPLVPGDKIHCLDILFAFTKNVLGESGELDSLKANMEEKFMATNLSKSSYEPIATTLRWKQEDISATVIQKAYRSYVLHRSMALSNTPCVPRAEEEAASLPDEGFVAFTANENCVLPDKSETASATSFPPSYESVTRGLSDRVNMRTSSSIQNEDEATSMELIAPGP

IC50 [1]	IC50 [2]	SMILES
≤ 200 nM	≤ 200 nM	Cc1cc(C(F)(F)F)ccc1Oc1nnc(C(F)(F)F)cc1C(=O)Nc1cccc(S(C)(=O)=O)c1 [Compound 42]
201 to 500 nM	501 to 1000 nM	Cc1cc(F)ccc1Oc1nnc(C(F)(F)F)cc1C(=O)Nc1ccnnc1 [Compound 59, 3-(4-Fluoro-2-methyl-phenoxy)-N-pyridazin-4-yl-6-(trifluoromethyl)pyridazine-4-carboxamide]
> 5000 nM	> 5000 nM	Cc1cc(F)ccc1Oc1nnc(C(F)(F)F)cc1C(=O)Nc1ccc[n+]([O-])c1 [Compound 61]
501 to 1000 nM	≤ 200 nM	CS(=O)(=O)c1ccc(F)c(NC(=O)c2cc(C(F)(F)F)nnc2Oc2cc(F)ccc2Cl)c1 [Compound 74]
≤ 200 nM	≤ 200 nM	COc1c(Oc2ncc(C(F)(F)F)nc2C(=O)Nc2cccc(S(C)(=N)=O)c2)ccc(F)c1F (stereo not drawn) [Compound 136, 3-(3,4-difluoro-2-methoxy-phenoxy)-N-[3-(methylsulfonimidoyl)phenyl]-6-(trifluoromethyl)pyrazine-2-carboxamide]
> 5000 nM	> 5000 nM	Cc1cc(F)ccc1Oc1nnc(C(F)(F)F)cc1C(=O)Nc1ccc(=O)[nH]c1C [Compound 92, 3-(4-Fluoro-2-methylphenoxy)-N-(2-methyl-6-oxo-1,6-dihydropyridin-3-yl)-6-(trifluoromethyl)pyridazine-4-carboxamide]
201 to 500 nM	201 to 500 nM	Cc1cc(F)ccc1Oc1nnc(C(F)(F)F)cc1C(=O)Nc1ccc(C)c(S(C)(=O)=O)c1 [Compound 106, 3-(4-Fluoro-2-methylphenoxy)-N-(4-methyl-3-(methylsulfonyl)phenyl)-6-(trifluoromethyl)pyridazine-4-carboxamide]
≤ 200 nM	201 to 500 nM	Cc1cc(-c2cnoc2)ccc1Oc1nnc(C(F)(F)F)cc1C(=O)Nc1cccc(S(C)(=O)=O)c1 [Compound 132, N-(3-Methanesulfonylphenyl)-3-[2-methyl-4-(1,2-oxazol-4-yl)phenoxy]-6-(trifluoromethyl)pyridazine-4-carboxamide]
> 5000 nM	> 5000 nM	CCOc1cc(F)ccc1Oc1nnc(C)cc1C(=O)Nc1cccc(S(C)(=O)=O)c1 [Compound 108]
1000 to 5000 nM	1000 to 5000 nM	COc1cc(F)ccc1Oc1nnc(C(F)(F)F)cc1C(=O)Nc1cncc(S(C)(=O)=O)c1 [Compound 16]
201 to 500 nM	501 to 1000 nM	COc1cc(F)ccc1Oc1nnc(C(F)(F)F)cc1C(=O)Nc1cccc(S(=O)(=O)C(C)C)c1 [Compound 17]
> 5000 nM	> 5000 nM	O=C1NCc2ccc(NC(=O)c3cc(C(F)(F)F)nnc3Oc3ccc(F)cc3Cl)cc21 [Compound 69]
≤ 200 nM	≤ 200 nM	COc1cc(F)ccc1Oc1nnc(C(F)(F)F)cc1C(=O)Nc1ccc(C)c(S(C)(=O)=O)c1 [Compound 107, 3-(4-Fluoro-2-methoxyphenoxy)-N-(4-methyl-3-(methylsulfonyl)phenyl)-6-(trifluoromethyl)pyridazine-4-carboxamide]
501 to 1000 nM	501 to 1000 nM	Cc1ccc(F)cc1Oc1nnc(C(F)(F)F)cc1C(=O)Nc1cccc(S(C)(=O)=O)c1 [Compound 70]
> 5000 nM	> 5000 nM	COc1cc(F)ccc1Oc1nnc(C)cc1C(=O)Nc1cccc([S+](C)[O-])c1 (stereo not drawn) [Compound 105]
> 5000 nM	> 5000 nM	NC(=O)c1cncc(NC(=O)c2cc(C(F)(F)F)nnc2Oc2cc(F)ccc2Cl)c1 [Compound 84]
501 to 1000 nM	≤ 200 nM	Cc1cc(F)ccc1Oc1nnc(C(F)(F)F)cc1C(=O)Nc1ccn2nnnc2c1 [Compound 135, 3-(4-Fluoro-2-methylphenoxy)-N-(tetrazolo[1,5-a]pyridin-7-yl)-6-(trifluoromethyl)pyridazine-4-carboxamide]
501 to 1000 nM	201 to 500 nM	COc1cc(F)ccc1Oc1nnc(C(F)(F)F)cc1C(=O)Nc1cccc(-n2ncnc2C)c1 [Compound 36]

IC50 [1]	IC50 [2]	SMILES
≤ 200 nM	≤ 200 nM	Cc1cc(C#N)ccc1Oc1nnc(C(F)(F)F)cc1C(=O)Nc1cccc(S(N)(=O)=O)c1 [Compound 123, 3-(4-Cyano-2-methylphenoxy)-N-(3-sulfamoylphenyl)-6-(trifluoromethyl)pyridazine-4-carboxamide]
> 5000 nM	> 5000 nM	Cc1cc(-c2cn[nH]c2)ccc1Oc1nnc(C(F)(F)F)cc1C(=O)Nc1cccc(S(C)(=O)=O)c1 [Compound 133, 3-[2-Methyl-4-(1H-pyrazol-4-yl)phenoxy]-N-(3-methylsulfonylphenyl)-6-(trifluoromethyl)pyridazine-4-carboxamide]
≤ 200 nM	≤ 200 nM	COc1cc(F)ccc1Oc1nnc(C(F)(F)F)cc1C(=O)Nc1ccnc(C(N)=O)c1 [Compound 126, N-(2-Carbamoylpyridin-4-yl)-3-(4-fluoro-2-methoxyphenoxy)-6-(trifluoromethyl)pyridazine-4-carboxamide]
> 5000 nM	> 5000 nM	CSc1ccc(NC(=O)c2cc(C(F)(F)F)nnc2Oc2ccc(F)cc2C)cc1 [Compound 32]
1000 to 5000 nM	1000 to 5000 nM	COc1cc(F)ccc1Oc1nnc(C(F)(F)F)cc1C(=O)Nc1cnnc(C#N)c1 [Compound 55]
501 to 1000 nM	501 to 1000 nM	CNC(=O)c1ccc(NC(=O)c2cc(C(F)(F)F)nnc2Oc2ccc(F)cc2OC)cc1 [Compound 127, 3-(4-Fluoro-2-methoxyphenoxy)-N-(4-(methylcarbamoyl)phenyl)-6-(trifluoromethyl)pyridazine-4-carboxamide]
501 to 1000 nM	501 to 1000 nM	COc1cc(NC(=O)c2cc(C(F)(F)F)nnc2Oc2ccc(F)cc2C)ccn1 [Compound 86]
≤ 200 nM	≤ 200 nM	COc1cc(F)ccc1Oc1nnc(C(F)(F)F)cc1C(=O)Nc1ccc(C(N)=O)cc1 [Compound 27]
≤ 200 nM	≤ 200 nM	CS(=O)(=O)c1ccc(F)c(NC(=O)c2cc(C(F)(F)F)nnc2Oc2ccc(F)cc2Cl)c1 [Compound 72]
> 5000 nM	> 5000 nM	Cc1cc(F)ccc1Oc1nnc(C(F)(F)F)cc1C(=O)Nc1cccc2nncn12 [Compound 134, 3-(4-Fluoro-2-methyl-phenoxy)-N-([1,2,4]triazolo[4,3-a]pyridin-5-yl)-6-(trifluoromethyl)pyridazine-4-carboxamide]
201 to 500 nM	201 to 500 nM	CS(=O)(=O)c1cccc(NC(=O)c2cc(C(F)(F)F)nnc2Oc2cc(F)ccc2Cl)c1 [Compound 73]
≤ 200 nM	≤ 200 nM	COc1cc(F)ccc1Oc1nnc(C(F)(F)F)cc1C(=O)Nc1cccc(S(C)(=N)=O)c1 (stereo not drawn) [Compound 99, 3-(4-Fluoro-2-methoxyphenoxy)-N-(3-(S-methylsulfonimidoyl)phenyl)-6-(trifluoromethyl)pyridazine-4-carboxamide]
> 5000 nM	> 5000 nM	Cc1cc(F)ccc1Oc1nnc(C(F)(F)F)cc1C(=O)Nc1cccc(CS(C)(=O)=O)c1 [Compound 10]
≤ 200 nM	≤ 200 nM	Cc1cc(C2CC2)ccc1Oc1nnc(C(F)(F)F)cc1C(=O)Nc1cccc(S(C)(=O)=O)c1 [Compound 87]
≤ 200 nM	≤ 200 nM	Cc1cc(F)ccc1Oc1nnc(C(F)(F)F)cc1C(=O)Nc1cccc(S(N)(=O)=O)c1 [Compound 51]
≤ 200 nM	≤ 200 nM	Cc1cc(Br)ccc1Oc1nnc(C(F)(F)F)cc1C(=O)Nc1cccc(S(C)(=O)=O)c1 [Compound 82]
201 to 500 nM	201 to 500 nM	Cc1cc(F)ccc1Oc1nnc(C(F)(F)F)cc1C(=O)Nc1ccc(C)c(S(C)(=N)=O)c1 (stereo not drawn) [Compound 109, 3-(4-Fluoro-2-methylphenoxy)-N-(4-methyl-3-(S-methylsulfonimidoyl)phenyl)-6-(trifluoromethyl)pyridazine-4-carboxamide]
1000 to 5000 nM	501 to 1000 nM	COc1cc(F)ccc1Oc1nnc(C(F)(F)F)cc1C(=O)Nc1ccc2c(c1)S(=O)(=O)NC2=O [Compound 43]

From US20240336574A1 (LATIGO BIOTHERAPEUTICS, INC., priority 2021, published 2024)
